Two molecules from patent publication US20080262097A1, “Formulations” (priority 2005, published 2008) can be followed below.

The test system of assay [1] is P. acnes PRP-010. The assay is described as follows: MBC assay. The assay is classed as cell-based, Propionibacterium acnes. Conditions: Cutibacterium acnes, PRP010; P. acnes PRP-010 (resistance MLSK). As for the experimental part:
(§1) Other propionibacterial strains were also tested, as described in Example 8 below. These included certain antibiotic resistant propionibacteria, such as the two P. acnes strains PRP-010 and PRP-053 which are resistant respectively to macrolides-lincosamides-streptogramins-ketolides (MLSK) and to macrolides-lincosamides-streptogramins (MLS) and tetracycline—in other words, PRP-010 is resistant to erythromycin and clindamycin, and […] to erythromycin, clindamycin and tetracycline.
(§2) The Propionibacterium spp organisms were cultured and maintained on Wilkins-Chalgren Anaerobe Medium (agar and broth) at pH 6.0; cultures were incubated anaerobically at 37° C. for 72 hours.
(§3) This assay, normally carried out after an MIC assay, determines the minimum concentration of a compound that is lethal to the micro-organism being tested.
(§4) These samples were then individually sub-cultured on non-selective agar medium, under the incubation conditions described above. Following incubation they were examined visually for bacterial growth.

Assay [2] has as its system P. acnes PRP-053. The assay is described as follows: MBC assay. In kind it is cell-based, Propionibacterium acnes. Conditions: Cutibacterium acnes, PRP053; P. acnes PRP-053 (resistance Tet/MLS). As to the method: as §1, §2, §3, §4
For the next assay, the system named is S. aureus ATCC 29213. The assay is described as follows: Time-to-kill (TTK) assay. In kind it is cell-based, Staphylococcus aureus. Conditions: BP 125 μg/ml and/or TBHQ […]; for CFU/ml 0.5: 0.5 hours; for CFU/ml 1.0: 1 hour. As for the experimental part: This quantitative assay was designed to assess the time taken for a test compound to kill a test micro-organism.
Samples from an incubated liquid culture containing the relevant test compound and micro-organism were taken at timed intervals and inoculated onto agar plates. The plates were then incubated as described above and subsequently examined visually for growth. The numbers of viable microbial colonies on the plates were counted and converted to colony-forming units per ml (cfu/ml) using the appropriate dilution factor. By way of example, a colony count of 25 colonies from an agar plate carrying 100 μl of inoculum which had been serially diluted to 10^−6 would yield a viable cell count of 25×10 (to correct to 1 ml)×106 which would be equivalent to 2.5×10^8 cfu/ml. These cfu values were then converted into log10 values and plotted graphically against time of sample removal.
At each time point, samples were assessed in triplicate; the final cfu/ml value was an average (mean) of the three readings.
An appropriate concentration of test compound(s) for use in this assay was determined based on previously conducted MIC/FIC assays.
The TTK assay can provide another measure of synergy, as combinations of compounds may interact to kill test micro-organisms more quickly than the individual compounds alone. This would be indicated by a steeper decline in viable bacterial cell counts as compared to those observed for the individual compounds alone.
TTK assays were then conducted, as described above, on samples of BP, TBHQ and a BP/TBHQ mixture, using S. aureus ATCC 29213 as the test organism. The solvents used were DMSO for the BP and ethanol for the TBHQ. The results are shown in Table 3. cfu values were measured at time 0, 0.5 hours and 1 hour.

Assay [3] deals with P. acnes PRP-010. The assay can be described thus: MIC assay. The assay is classed as cell-based, Propionibacterium acnes. Conditions: Cutibacterium acnes, PRP010; P. acnes PRP-010 (resistance MLSK). As for the experimental part:
as §1, §2
(§5) This is a standard international method for quantitatively assessing the antimicrobial activity of a compound in a liquid medium. The method used a 96-well microtitre plate, capable of holding about 200 μl of liquid per well. […] The culture media were as described above for the relevant test organisms.
(§6) The wells were inoculated with a liquid suspension of freshly grown micro-organism and incubated under the conditions described above. After incubation, the microtitre plate was examined visually (with the aid of a light box) for cell pellets in and/or opaque wells, which would indicate microbial growth. The MIC value was recorded as the lowest concentration of test compound required to inhibit microbial growth, ie, the lowest concentration for which the liquid in the well remained clear.
(§7) The assays were conducted in duplicate and included both negative (culture medium only) and positive (culture medium, diluting solvent and inoculum) controls.

Assay [4] relates to P. acnes PRP-053. The assay can be described thus: MIC assay. In kind it is cell-based, Propionibacterium acnes. Conditions: Cutibacterium acnes, PRP053; P. acnes PRP-053 (resistance Tet/MLS). As for the experimental part: as §1, §2, §5, §6, §7
The subject of a further assay is P. acnes PRP-007. The assay can be described thus: Disc diffusion assay (DDA). The assay is classed as cell-based, Propionibacterium acnes. Conditions: zone diameter, 200 μg per disc. As for the experimental part:
as §2
(§8) A sterile paper disc was impregnated with a sample of the test compound and a minimum of 30 minutes allowed for the solvents to evaporate as far as possible. The disc was then placed on an agar plate onto which the test micro-organism had been inoculated. The plate was then incubated under the conditions described above, following which it was examined visually for signs of bacterial growth. If the test compound had antimicrobial activity, a circular zone of no growth would be obtained around the disc. The diameter of this zone of “inhibition” was measured using a ProtoCOL™ automated zone sizer (Synbiosis, Cambridge, UK). In general, a greater diameter and/or area of the zone of inhibition indicates a greater antimicrobial activity in the relevant test compound, although other factors such as test compound mobility through the agar gel may also influence the result.
(§9) The area of the zone of inhibition was calculated from the measured zone diameter (D) using the formula π(D/2)^2.
For orientation: Agar diffusion results depend on both activity and mobility in agar.

The subject of the next assay is P. acnes PRP-004. The assay can be described thus: Disc diffusion assay (DDA). In kind it is cell-based, Propionibacterium acnes. Conditions: zone diameter, 200 μg per disc. As to the method:
as §2, §8, §9

Another assay deals with P. acnes PRP-003. The assay is described as follows: Disc diffusion assay (DDA). In kind it is cell-based, Propionibacterium acnes. Conditions: zone diameter, 200 μg per disc. As to the method:
as §2, §8, §9

For the next assay, the system named is P. acnes PRP-008. The assay can be described thus: Disc diffusion assay (DDA). In kind it is cell-based, Propionibacterium acnes. Conditions: zone diameter, 200 μg per disc. As for the experimental part: as §2, §8, §9
The next assay has as its system P. acnes PRP-026. The assay is described as follows: Disc diffusion assay (DDA). In kind it is cell-based, Propionibacterium acnes. Conditions: zone diameter, 200 μg per disc. As to the method:
as §2, §8, §9

The next assay has as its system P. acnes PRP-002. The assay can be described thus: Disc diffusion assay (DDA). In kind it is cell-based, Propionibacterium acnes. Conditions: zone diameter, 200 μg per disc. As to the method:
as §2, §8, §9

The next assay relates to P. acnes PRP-017. The assay can be described thus: Disc diffusion assay (DDA). In kind it is cell-based, Propionibacterium acnes. Conditions: zone diameter, 200 μg per disc. As for the experimental part: as §2, §8, §9
In another assay the test system is P. acnes PRP-059. The assay is described as follows: Disc diffusion assay (DDA). The assay is classed as cell-based, Propionibacterium acnes. Conditions: zone diameter, 200 μg per disc. As to the method: as §2, §8, §9
For the next assay, the system named is P. acnes PRP-023. The assay is described as follows: Disc diffusion assay (DDA). The assay is classed as cell-based, Propionibacterium acnes. Conditions: zone diameter, 200 μg per disc. As to the method:
as §2, §8, §9

Another assay relates to P. acnes PRP-068. The assay is described as follows: Disc diffusion assay (DDA). The assay is classed as cell-based, Propionibacterium acnes. Conditions: zone diameter, 200 μg per disc. As for the experimental part:
as §2, §8, §9

A further assay concerns P. acnes PRP-101. The assay is described as follows: Disc diffusion assay (DDA). Conditions: zone diameter, 200 μg per disc. In kind it is cell-based, Propionibacterium acnes. As for the experimental part: as §2, §8, §9
A further assay relates to P. acnes PRP-102. The assay is described as follows: Disc diffusion assay (DDA). The assay is classed as cell-based, Propionibacterium acnes. Conditions: zone diameter, 200 μg per disc. As for the experimental part: as §2, §8, §9
Another assay concerns P. acnes PRP-046. The assay can be described thus: Disc diffusion assay (DDA). The assay is classed as cell-based, Propionibacterium acnes. Conditions: zone diameter, 200 μg per disc. As for the experimental part:
as §2, §8, §9

≈ marks a conversion by molar mass, not a printed value.

In general, MBC refers to the smallest concentration meeting the test's criterion for killing. Low readings indicate greater bactericidal potency, high ones weaker bactericidal potency. Broadly, the MIC is the lowest concentration that inhibits growth of the organism. A low value points to inhibition by little substance. In the case of `CC(C)(C)c1cc(O)ccc1O` [TBHQ, t-butyl hydroquinone], the MBC is 15.6 µg/mL (≈ 93.9 µM) with P. acnes PRP-010 [1] and 7.8 µg/mL (≈ 46.9 µM) in the assay with P. acnes PRP-053 [2]. In the assay with S. aureus ATCC 29213, the Time to kill is on record as more than 1 h. In addition, the “CFU/ml 0.5” value in the assay with S. aureus ATCC 29213 was 7.40 × 10^5 CFU/ml. The “CFU/ml 1.0” value in the assay on S. aureus ATCC 29213 was 8.47 × 10^5 CFU/ml. For the same molecule, the “CFU/ml t = 0” value with S. aureus ATCC 29213 is listed as 7.63 × 10^5 CFU/ml. Besides, the MIC against P. acnes PRP-010 [3] and in the assay on P. acnes PRP-053 [4] was 3.9 µg/mL (≈ 23.5 µM) each time. Also, the DDA is given as 13.43 (±2.49) mm in the assay on P. acnes PRP-007; 30.32 (±1.97) mm in the assay with P. acnes PRP-004; 38.01 (±1.02) mm in the assay with P. acnes PRP-003; 14.47 (±0.90) mm in the assay on P. acnes PRP-008; 8.18 (±0.72) mm with P. acnes PRP-026; 28.42 (±0.95) mm in the assay with P. acnes PRP-002. Besides, the DDA with P. acnes PRP-017 is on record as 18.40 (±1.08) mm; in the assay with P. acnes PRP-059 it was 17.56 (±0.72) mm; in the assay with P. acnes PRP-023, 23.90 (±0.00) mm; in the assay with P. acnes PRP-068 it was 20.89 (±1.08) mm; in the assay with P. acnes PRP-101 it was 0.0 (±0.00) mm; with P. acnes PRP-102, 23.80 (±0.10) mm. In the assay on P. acnes PRP-046, the DDA is given as 17.46 (±1.58) mm.

On to `O=C(OOC(=O)c1ccccc1)c1ccccc1` [benzoyl peroxide], for which the figures for the MBC in the assay with P. acnes PRP-010 [1] and against P. acnes PRP-053 [2] were 31.2 µg/mL (≈ 129 µM) and 62.5 µg/mL (≈ 258 µM), respectively. For the same molecule, the Time to kill with S. aureus ATCC 29213 is more than 1 h. Besides, the “CFU/ml 0.5” value in the assay on S. aureus ATCC 29213 is given as 6.20 × 10^5 CFU/ml. Besides, in the assay with S. aureus ATCC 29213, the “CFU/ml 1.0” value is reported as 3.67 × 10^4 CFU/ml. The “CFU/ml t = 0” value in the assay with S. aureus ATCC 29213 is given as 7.63 × 10^5 CFU/ml. In addition, the MIC in the assay on P. acnes PRP-010 [3] and with P. acnes PRP-053 [4] was 31.2 µg/mL (≈ 129 µM) each time. For the same molecule, the DDA in the assay with P. acnes PRP-007 is on record as 23.88 (±1.42) mm; in the assay on P. acnes PRP-004 it was 31.17 (±1.02) mm; in the assay with P. acnes PRP-003, 25.69 (±0.66) mm; in the assay on P. acnes PRP-008, 27.80 (±1.29) mm; in the assay with P. acnes PRP-026 it was 26.52 (±0.65) mm; with P. acnes PRP-002, 25.69 (±0.66) mm. The DDA in the assay with P. acnes PRP-017 is reported as 23.28 (±0.48) mm; in the assay on P. acnes PRP-059, 23.49 (±0.48) mm; in the assay with P. acnes PRP-023, 24.11 (±0.65) mm; in the assay with P. acnes PRP-068, 28.79 (±0.95) mm; in the assay on P. acnes PRP-101, 25.73 (±1.99) mm; in the assay on P. acnes PRP-102 it was 29.62 (±1.12) mm. Further, the DDA in the assay on P. acnes PRP-046 is 24.36 (±0.36) mm.
